Reference: article PMC5512454 (Bioorganic & medicinal chemistry, 2017)

Experiments:
[1] = test system: food-maintained responding; test: Food-maintained behavior in rhesus monkeys; format: in vivo
[2] = test system: cocaine-maintained responding; test: Cocaine self-administration in rhesus monkeys; format: in vivo
human D3 receptor = human D3 receptor (Homo sapiens, UniProt P35462); test: Radioligand displacement assay, hD3
[3] = test system: D3 receptors in rat brain; test: Ex-vivo autoradiography of coronal rat brain sections; format: in vivo; details: co-injection of BP897; region of interest-to-background ratios; 60 min p.i.
[4] = test system: dopamine D3 receptors in vivo; test: PET imaging study in rat
[5] = molecular target: D3 receptors in rat brain slices (Rattus norvegicus, UniProt P19020); test: In-vitro autoradiography of coronal rat brain slices; format: binding; details: proven by displacement with BP897 (1 μM)
D3 receptors in rat brain slices, sequence (P19020 whole entry): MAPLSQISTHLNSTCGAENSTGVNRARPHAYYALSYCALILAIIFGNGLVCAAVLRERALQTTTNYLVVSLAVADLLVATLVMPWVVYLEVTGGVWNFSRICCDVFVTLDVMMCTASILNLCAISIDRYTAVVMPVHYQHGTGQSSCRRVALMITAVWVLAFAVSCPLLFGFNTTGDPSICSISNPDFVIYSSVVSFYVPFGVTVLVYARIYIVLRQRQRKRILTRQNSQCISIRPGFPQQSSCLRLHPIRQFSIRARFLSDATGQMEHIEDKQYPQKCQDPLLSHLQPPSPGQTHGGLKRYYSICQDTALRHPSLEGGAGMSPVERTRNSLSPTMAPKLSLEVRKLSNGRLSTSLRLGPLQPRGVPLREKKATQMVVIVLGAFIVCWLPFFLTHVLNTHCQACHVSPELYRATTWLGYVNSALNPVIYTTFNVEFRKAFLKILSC

human D3 receptor, sequence (P35462 whole entry): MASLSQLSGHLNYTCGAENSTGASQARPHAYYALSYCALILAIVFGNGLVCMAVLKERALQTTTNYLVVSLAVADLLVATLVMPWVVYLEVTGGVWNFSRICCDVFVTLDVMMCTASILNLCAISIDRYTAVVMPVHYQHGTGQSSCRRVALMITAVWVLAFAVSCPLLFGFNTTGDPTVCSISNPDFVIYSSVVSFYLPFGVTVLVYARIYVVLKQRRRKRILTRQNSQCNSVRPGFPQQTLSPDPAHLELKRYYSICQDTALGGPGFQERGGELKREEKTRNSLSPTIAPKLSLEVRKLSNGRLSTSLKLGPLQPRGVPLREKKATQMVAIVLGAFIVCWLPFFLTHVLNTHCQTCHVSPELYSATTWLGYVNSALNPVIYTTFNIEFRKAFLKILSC

## COc1ccccc1N1CCN(CCCCNC(=O)c2cc3ccccn3n2)CC1 [Compound 1]
[1]; food 2
  Food-maintained responding following the i.v. self-administration component (food 2): did not appreciably alter
[1]; pretreatment 0.32 mg/kg, food 1 (before cocaine component)
  Reduction of food-maintained behavior during food 1 session: approximately 30%
[1]; pretreatment 0.1 and 0.18 mg/kg
  Food 1 and 2 responding at low and intermediate doses: did not markedly decrease
[1]; suggested from food 2 components in sessions of i.v. saline availability
  Duration of action of behaviorally active doses: < 2 h
[2]; pretreatment 0.32 mg/kg, 0.03 mg/kg per injection i.v. cocaine, group average
  Cocaine-maintained responding, % of control values: approximately 20%
[2]; various doses (Figure S2)
  Effect of various pretreatment doses on cocaine-maintained responding: dose-related decreases

## CC(C)(C)c1nc(N2CCN(CCCCNC(=O)c3cc4ccccc4s3)CC2)cc(C(F)(F)F)n1 [Compound 9, N-(4-(4-(2-tert-butyl-6-(trifluoromethyl)pyrimidin-4-yl)piperazin-1-yl)butyl)benzo[b]thiophene-2-carboxamide]
Human D3 receptor
  D3 selectivity over all biogenic amine receptors investigated: 1000–20000 fold

## O=C(NCCCCN1CCN(c2ccccc2OCC[18F])CC1)c1cc2ccccn2n1 [[^18F]2, N-[4-[4-(2-[^18F]fluoroethoxyphenyl)-piperazin-1-yl]-butyl]-pyrazolo-[1,5-a]pyridin-2-carboxamide]
[3]
  Radioligand displaced by BP897, third ventricle (3V): 5–14%
[4]
  Blood-brain-barrier (BBB) penetration: only low blood-brain-barrier (BBB) penetration
  Brain uptake of the radioligand in CNS structures: marginal brain uptake
  Reduction of uptake in the pituitary gland by pretreatment with BP897: 25%
[4]; 40 min p.i.
  Mean whole pituitary gland uptake of the radioligand: 0.394 ± 0.016 % ID/g
[5]
  Binding in rat brain slices, in-vitro autoradiography: D3-specific binding
